Assay results from patent publication US20260071220A1, “CONJUGATE OF NUCLEOTIDE ANALOG-CONTAINING DOUBLE-STRANDED RNAI ANALOG” (BaseCure Therapeutics LLC, priority 2022, published 2026).
Several values for one entry are separate records, joined by “and”; a condition that tells them apart may be missing. Equal values may be shown once. In the oligonucleotide strings, read from the 5' end, every base follows the letter of its sugar. An asterisk marks phosphorothioate; unmarked linkages are phosphodiester. Other units and linkages are bracketed, terminal groups are in braces. A string of capitals states the bases alone. {D01} = GalNAc ligand D01, attached to sense strand by a phosphodiester bond; m = 2'-O-methyl; f = 2'-fluoro

Legend:
AGT mRNA [1] = assay: Compound activity experiment in Huh7 cell line (transfection, AGT mRNA by qPCR); type: cell-based, human; settings: Huh7, RNAiMAX transfection, 24 h
Method: 1. Objective: this study aims to evaluate the inhibitory effect of the conjugate described in this patent on a target gene using a Huh7 cell line. The inhibitory activity of the compound on target gene AGT is evaluated based on the EC50 value of the compound as an index.
Huh7 cells were provided by Shanghai WuXi AppTec New Drug Development Co., Ltd. Hub7 cells were cultured in MEM medium containing 10% fetal bovine serum and 1% penicillin streptomycin.
1) On Day 1, a mixed solution of an RNAiMAX transfection reagent and Opti-MEM was prepared as needed in a ratio of RNAiMAX transfection reagent:Opti-MEM=1.5:48.5, and incubated for 15 min at room temperature;
2) For cells in each well, a certain amount of diluted compound was taken and added into an equal amount of RNAiMAX Optim-MEM medium to be mixed well, and then incubated for 15 min;
3) Huh7 cells were taken and washed with DPBS, digested with trypsin, and the density of the cells was adjusted to an appropriate density;
4) The cells were seeded into a 96-well plate at a density of 2,0000 cells/well while adding a mixture of 20 μL Opti-MEM RNAiMax and the compound into the cell culture plate, and the volume of the final medium for each well was 120 μL.
5) The cells were incubated for 24 h in an incubator under the conditions of 5% CO2 and 37° C. […]
The cDNA of the target gene was detected by qPCR. qPCR was carried out in a 384-well plate using GAPDH as an internal reference gene. […]
This method requires the introduction of the internal reference gene GAPDH, as the internal reference gene is expressed in all the cells and its product is necessary for maintaining cell survival; and the expression level or copy number of the genome in cells remains constant and is less affected by environmental factors. After qRT-PCR, the CT value of the internal reference will also be recorded, called Ct (GAPDH), and the CT value of the sample is called Ct (sample).

AGT protein = assay: In vivo PD experiment of non-human primate cynomolgus monkey (plasma AGT protein); settings: for plasma AGT protein level after administration/before administration, Average: group average; for plasma AGT protein level after administration/before administration: individual animal
Excerpt: The downregulation degree of cynomolgus monkey plasma AGT by the sample to be tested was observed through a non-human primate cynomolgus monkey model highly homologous to a human in AGT gene.
2. Experimental materials: cynomolgus monkeys, 1×PBS (phosphate buffer solution), AD-85481 (US2021095290), and a conjugate of the present invention.
10 cynomolgus monkeys with the weight of 2-3 kg were purchased, and the animals were adapted to quarantine for one week after arriving at an animal room.
On Day −6, cynomolgus monkeys were divided into groups at random according to weight data, with 2 cynomolgus monkeys in each group, the AGT protein concentrations in plasmas of all the cynomolgus monkeys were detected after grouping as an experimental data baseline for each group.
Administration was performed on Day 1. Group 1 was dosed with 1×PBS; group 2 was subcutaneously injected with AD-85481 at the dose of 0.3 mpk; group 3 was subcutaneously injected with AD-85481 at the dose of 3 mpk; group 4 was subcutaneously injected with the conjugate 2 of the present invention at the dose of 0.3 mpk; group 5 was subcutaneously injected with the conjugate 2 of the present invention at the dose of 3 mpk. Blood was collected on Day 1, 2, 4, 8, 15, 22, 29, 32, 35, 43, 57, 71 after administration to detect the AGT protein concentration in plasma of each cynomolgus monkey. By comparing the AGT protein concentration in plasma after administration to the AGT protein concentration on Day −6, the relative downregulation proportion of the AGT proteins in each group of animals was obtained.
4. In the table, the data represent AGT gene expression level after administration/AGT gene expression level before administration.

AGT mRNA [2] = assay: Free uptake experiment of PHH cells (AGT mRNA by qPCR); type: cell-based, human; settings: 48 h
Method: A sample to be tested was incubated with primary human hepatocytes. The downregulation degree of AGT mRNA by the sample to be tested was evaluated.
Primary human hepatocytes (PHH), RNeasy® 96 Kit (12) (QIAGEN-74182), FastKing RT Kit (With gDNase) (Tiangen-KR116-02), TaqMan Gene Expression Assay (GAPDH, Thermo, Assay ID-Hs02786624_g1), TaqMan Gene Expression Assay (AGT, Thermo, Assay ID-Hs01586213_m1).
A conjugate of the present invention was diluted with a PBS solution until the obtained concentration was 10 times the concentration to be tested. 10 uL of siRNA was transferred to a 96-well plate. PHH cells were thawed and seeded to the 96-well plate, and the final cell density was 5.4×10^5 cells/well. The conjugate of the present invention was tested for 10 concentration points, and the highest concentration was 500 nM, with 4-fold dilution.
The cells were incubated for 48 h under the conditions of 37° C. and 5% CO2, and the state of the cells was observed using a microscope.
After the incubation was completed, the cells were lysed, all of RNA was extracted from the obtained lysate using RNeasy® 96 Kit (QIAGEN-74182), and underwent reverse transcription using FastKing RT Kit (With gDNase) (Tiangen-KR116-02) to obtain cDNA. AGT cDNA was detected by qPCR.

[3] = AGT mRNA, read-out: Absolute EC50

“Conjugate 2: Double-stranded RNAi analog against AGT, D01 GalNAc ligand on sense strand; sense SEQ ID NO: 6, antisense SEQ ID NO: 2 containing Z (sense mA*mU*fCfCmAfCfAfAmUmGmAmGmAfGmUmAmCmA-{D01}; antisense CUCACAUGUACNCUCAUUGUGGAUGACGA; antisense: chemistry not given here; antisense strand modified, includes nucleotide analog Z, further chemistry not fully specified)” was tested, and the “Emax (remaining AGT mRNA)” value (AGT mRNA [1]) was 5%, the EC50 (AGT mRNA [1]; [3]) was 0.00592 nM and the “Log (concentration)” value (AGT mRNA [1]; log of the absolute EC50 (matches nM)) was −2.228. The “plasma AGT protein level after administration/before administration, Average” value (AGT protein; 0.3 mg/kg single s.c., Day 22 vs Day -6) was 25.72%, the “plasma AGT protein level after administration/before administration, Average” value (AGT protein; 0.3 mg/kg single s.c., Day 71 vs Day -6) was 51.76% and the “plasma AGT protein level after administration/before administration, Average” value (AGT protein; 3 mg/kg single s.c., Day 22 vs Day -6) was 2.47%. For the same substance, the “plasma AGT protein level after administration/before administration, Average” value (AGT protein; 3 mg/kg single s.c., Day 71 vs Day -6) was 9.88%, the “plasma AGT protein level after administration/before administration” value (AGT protein; 0.3 mg/kg single s.c., Day 22 vs Day -6, 0.3 mg/kg) was 28.47% and 22.96% and the “plasma AGT protein level after administration/before administration” value (AGT protein; 0.3 mg/kg single s.c., Day 71 vs Day -6, 0.3 mg/kg) was 55.17% and 48.35%. The “plasma AGT protein level after administration/before administration” value (AGT protein; 3 mg/kg single s.c., Day 22 vs Day -6, 3 mg/kg) was 0.84% and 4.09%, the “plasma AGT protein level after administration/before administration” value (AGT protein; 3 mg/kg single s.c., Day 71 vs Day -6, 3 mg/kg) was 10.84% and 8.92% and the “Emax (remaining AGT mRNA)” value (AGT mRNA [2]) was 5%. For the same substance, the EC50 (AGT mRNA [2]; [3]) was 0.197 nM and the “Log (concentration)” value (AGT mRNA [2]; log of the absolute EC50 in nM) was −0.705.
